{"source": "paper PMC11023993", "about": "“Piperine, quercetin, and curcumin identified as promising natural products for topical treatment of cutaneous leishmaniasis” (Parasitology Research, 2024)", "key": {"[1]": {"assay": "MTT cytotoxicity assay in uninfected U-937 macrophages", "conditions": "human", "protocol": "U-937 (CRL-1593.2™) macrophages (ATCC, Manassas, VA, USA) were cultured in RPMI-1640 medium supplemented with 10% of FBS and incubated at 37 °C in 5% CO2, 95% humidity atmosphere. U-937 cells in the exponential growth phase were recovered, and washed by centrifugation at 1800 rpm for 10 min at room temperature; the pellet was then resuspended in supplemented RPMI 1640 medium and counted in a Neubauer chamber. The number was adjusted to 1 × 10^6 cells per mL and 100 µL was dispensed into each well of a 96-well plate. Then, another 100 µL of each serial dilution of QUE, PIP, CUR, doxorubicin, and amphotericin B was added to each well by triplicate and plates were incubated at 37 °C 5% CO2, 95% humidity atmosphere for 48 h.\nThe MTT solution is then added to the treated cells, where the yellow MTT is reduced to purple formazan by a variety of mitochondrial and cytosolic enzymes that are operational in viable cells. After 3 h of incubation with MTT, the formazan precipitates. Consequently, the growing medium was removed, the formazan was dissolved in DMSO, and the absorbance of the solution was measured at 570 nm using a microplate reader spectrophotometer (Varioskan Flash, Thermo Fisher Scientific).\nCells exposed to the standard cytotoxic drug doxorubicin were used as an internal control for toxicity (positive control) while cells incubated in the absence of any compound or drug were used as a control for viability (negative control). A solution of 0.5% DMSO was used as a blank solution. Non-specific absorbance was corrected by subtracting absorbance (OD) of the blank. Determinations were done by triplicate in at least two independent experiments.\nThe OD of viable cells that remained after treatment was compared to the OD of control cells that were not exposed to the drug. The LC50 (median lethal concentration) values and their statistical errors were calculated based on triplicates of the measurement in the independent assays. The LC50 values were determined by non-linear regression using Prism GraphPad 10.\nThe LC50 and the EC50 were calculated by Probit analysis using GraphPad Prism 10 (San Diego, CA, USA). Both cytotoxicity and leishmanicidal activity were defined by ranges of values of LC50 and EC50 in terms of high, moderate, or low as follows: high cytotoxicity for LC50 values < 100 µM, moderate cytotoxicity for LC50 values > 100 µM but < 200 µM, and low cytotoxicity for LC50 values > 200 µM. […] In addition, the cytotoxicity in U937 macrophages was correlated with the leishmanicidal activity by calculating the Selectivity Index (SI), using the equation: SI = LC50/EC50 (Indrayanto et al. [2021])."}, "L. major": {"test_system": "L. major", "design": "method as in Almadani et al. [2021]", "conditions": "oral 50 mg/kg for 28 consecutive days; ref Almadani et al. [2021]; cited from earlier work"}}, "data": [{"smiles": "O=c1c(O)c(-c2ccc(O)c(O)c2)oc2cc(O)cc(O)c12", "note": "[Quercetin, quercetin]", "values": [{"measurement": "CC50 at 48 h", "setting": "[1]", "value": "> 662", "unit": "µM"}, {"measurement": "histopathological analysis of tissue sections", "setting": "L. major", "value": "reduction in inflammatory cell count, an increase in fibroblasts, and enhanced collagen deposition"}]}]}
